# Earlier results as cited in the CATMoS acute toxicity set (Mansouri et al. 2021).
# Where “and” joins values, the source holds several entries; their conditions need not be identical. Equal values may be shown once.
# Assay: rat acute oral toxicity
# Conditions: in vivo
row,SMILES,LD50
1,Clc1cccc2ccccc12,2200 mg/kg and 1540 mg/kg
2,O=NN(CCCl)C(=O)NC1CCCCC1,70 mg/kg
3,NCCCN1CCOCC1,3560 mg/kg
4,C=COCC(C)CCCC(C)CC(C)C (stereo not drawn),1220 mg/kg
5,CCCCCCCC/C=C\CCCCCCCC(=O)NCC[N+]1(C)CCN=C1CCCCCCC/C=C\CCCCCCCC (stereo not drawn),24400 mg/kg
6,CC[N+](CC)(CC)CC,2630 mg/kg
7,CC(C(=O)COC(=O)c1ccncc1)c1ccc(-c2ccccc2F)cc1 (stereo not drawn),1170 mg/kg
8,ClC1=C(Cl)[C@]2(Cl)[C@@H]3[C@@H](Cl)[C@H](Cl)[C@@H](Cl)[C@@H]3[C@@]1(Cl)C2(Cl)Cl (racemic),500 mg/kg
9,CCCc1nc(C)cc(OC(=O)N(C)C)n1,200 mg/kg
10,CCc1cc2c(s1)N(C)C(=O)CN=C2c1ccccc1Cl,1460 mg/kg
11,CC(Cl)COP(=O)(OCC(C)Cl)OCC(C)Cl (stereo not drawn),1020 mg/kg
12,ClC(COCC(Cl)C(Cl)(Cl)Cl)C(Cl)(Cl)Cl (stereo not drawn),3630 mg/kg
13,Cc1cccn2c(=O)c(-c3nnn[nH]3)cnc12,687 mg/kg
14,CNC(=O)ON=C1SC(=NC(C)(C)C)SC1(C)C,31.5 mg/kg
15,C=CN(C(C)=O)c1ccccc1,2460 mg/kg
16,Cc1cccc2c1C(=O)C(c1c(Cl)cccc1Cl)C2=O (stereo not drawn),466 mg/kg
17,CC(N)=[Se],10 mg/kg
18,CC(C)CC(=O)CC1(C)CCC(c2ccoc2)O1 (stereo not drawn),350 mg/kg
19,CNC(=O)ON=C(CSC)C(C)(C)C,8.5 mg/kg
20,OC1(c2ccc(Cl)c(Cl)c2)c2ccccc2C2=NCCN21 (stereo not drawn),353 mg/kg
21,CCN(CC(F)(F)F)N=O,960 mg/kg
22,CCN(CC)CCNC(=O)c1cc(Cl)c(N)cc1OCc1ccccc1,220 mg/kg
23,Oc1c(Cl)cc2[nH]c(C(F)(F)F)nc2c1Cl,58 mg/kg
24,Cn1c(=O)c2c(nc(Cc3ccc(N)cc3)n2C)n(C)c1=O,383 mg/kg

row,SMILES,LD50
1,CCN(CC)CC1CCCCN1CC(=O)N1c2ccccc2C(=O)Nc2cccnc21 (stereo not drawn),1530 mg/kg
2,C#CCN1C(=O)CN=C(c2ccccc2)c2cc(Cl)ccc21,5820 mg/kg
3,CC(C)Nc1ccccc1,560 mg/kg
4,COc1cc(S(C)=O)ccc1-c1nc2ccncc2[nH]1 (stereo not drawn),132 mg/kg
5,CC1Cc2cc(C(=O)CCc3ccccc3)ccc2O1 (stereo not drawn),2150 mg/kg
6,C[C@@H]1CN(CCCn2c3ccccc3c3ccccc32)C[C@H](C)N1,907 mg/kg
7,CCC(=O)C(C)=O,3000 mg/kg
8,CCCC[N+](CCCC)(CCCC)CCCC,1990 mg/kg
9,COP(=S)(OC)SCCSc1ccc(Cl)cc1,100 mg/kg
10,CCCCCCc1ccccc1O,1300 mg/kg
11,O=C(O)c1cc(/N=N/c2ccc(S(=O)(=O)Nc3ccccn3)cc2)ccc1O,15600 mg/kg
12,CC1(C)Cc2cccc(OC(=O)NCSc3ccc(Br)cc3)c2O1,25 mg/kg
13,CCN(CC)c1nc(N(C=NC2CC(C)(C)NC(C)(C)C2)C2CC(C)(C)NC(C)(C)C2)nc(N(C=NC2CC(C)(C)NC(C)(C)C2)C2CC(C)(C)NC(C)(C)C2)n1,826 mg/kg
14,CN(C)C(=O)Cl,1000 mg/kg
15,COc1ccccc1C1=CCN(CC=Cc2ccc3c(c2)CCC(=O)N3)CC1,500 mg/kg
16,O=C1c2ccccc2S(=O)(=O)N1CCCCNC[C@H]1CCc2ccccc2O1,324 mg/kg
17,CCN(CC)c1nc(NC(C)C)nc(OC)n1,885 mg/kg
18,C=CC(=O)OCCC#N,180 mg/kg
19,CCOc1ccc(C2CC(N(CC)CC)c3ccccc32)cc1 (stereo not drawn),860 mg/kg
20,CC(C=CC=C(C)C(=O)OC1OC(COC2OC(CO)C(O)C(O)C2O)C(O)C(O)C1O)=CC=CC=C(C)C=CC=C(C)C(=O)OC1OC(COC2OC(CO)C(O)C(O)C2O)C(O)C(O)C1O (stereo not drawn),3160 mg/kg
21,COc1cc2ccc(=O)oc2cc1OC,292 mg/kg
22,FC(F)(F)c1nc2c(Br)cccc2[nH]1,28 mg/kg
23,CCCCC(CC)COCCC#N (stereo not drawn),4920 mg/kg
24,CC(=O)OCC(C)c1ccccc1 (stereo not drawn),4300 mg/kg

row,SMILES,LD50
1,Cc1cc(Cl)ccc1OCC(=O)Nc1ccccc1,4500 mg/kg
2,CCOP(=O)(OCC)OC(=C(Cl)Br)c1ccc(Cl)cc1Cl,19.3 mg/kg
3,CC[N+](CC)(CC)Cc1ccc(C(C)C(C)c2ccccc2)cc1 (stereo not drawn),2180 mg/kg
4,O=C1NC(=O)C(=O)C(=O)N1,5210 mg/kg
5,CC(C)(C)c1ccc(OCC(O)COc2ccc(C(=O)O)cc2)cc1 (stereo not drawn),2400 mg/kg
6,CCNC(C)c1ccccc1 (stereo not drawn),360 mg/kg
7,CC(C)(C)c1cc(C=C(C#N)C#N)cc(C(C)(C)C)c1O,87 mg/kg
8,CC(C)c1ccccc1OP(=O)(Oc1ccccc1)Oc1ccccc1,10000 mg/kg
9,C=CC[C@@H]1C=C(C)C[C@H](C)C[C@H](OC)[C@H]2O[C@@](O)(C(=O)C(=O)N3CCCC[C@H]3C(=O)O[C@H](C(C)=C[C@@H]3CC[C@@H](O)[C@H](OC)C3)[C@H](C)[C@@H](O)CC1=O)[C@H](C)C[C@@H]2OC,134 mg/kg
10,CN(C)CCN(CCN(C)C)n1cc(-c2ccccc2)c2ccccc21,1250 mg/kg
11,O=C(O)CCCCCCCCCl,3000 mg/kg
12,CCCSP(=O)(OCC)Oc1ccc(Sc2ccc(Cl)cc2)cc1 (stereo not drawn),690 mg/kg
13,CCOc1ccccc1N1CCN(CCC=Cc2ccc3c(c2)CCC(=O)N3)CC1,500 mg/kg
14,CN1[C@@H]2CC[C@H]1C[C@@H](OC1c3ccccc3CCc3ccccc31)C2,445 mg/kg
15,CC(C)OP(=S)(OC(C)C)SCn1nc(Cl)ccc1=O,190 mg/kg
16,Nc1ccc(I)cc1,523 mg/kg
17,C=CC[N@@+]12CC[C@@]34c5ccccc5N5C=C6[C@H]7C[C@H]8[C@@]9(CC[N@@+]8(CC=C)C/C7=C/CO)c7ccccc7N(C=C([C@@H](C[C@@H]31)/C(=C\CO)C2)[C@H]54)[C@@H]69,27.6 mg/kg
18,FC(F)(F)c1nc2c(Br)c(Cl)c(Cl)c(Br)c2[nH]1,3.43 mg/kg
19,O=C1OC(=O)C2CCCCC12 (stereo not drawn),4040 mg/kg
20,CCCCCCCCCCCCCCCCCCOP(=O)([O-])OCC[N+]1(C)CCCCC1,631 mg/kg
21,CN(C)C1CSSC1,420 mg/kg
22,CCCCCCCCCCO,4720 mg/kg
23,C=CC1OCCO1,84.7 mg/kg
24,CCOC(=O)Nc1ccc(NC(Cc2ccccc2)c2ccccc2)nc1N (stereo not drawn),163 mg/kg

row,SMILES,LD50
1,O=C(O)C(F)(F)C(F)(F)C(F)(F)C(F)(F)C(F)(F)C(F)(F)C(F)(F)C(F)(F)C(F)(F)C(F)F,518 mg/kg
2,C=CC[C@@H]1C=C(C)C[C@H](C)C[C@H](OC)[C@H]2O[C@@](O)(C(=O)C(=O)N3CCCC[C@H]3C(=O)O[C@H](/C(C)=C/[C@@H]3CC[C@@H](O)[C@H](OC)C3)[C@H](C)[C@@H](O)CC1=O)[C@H](C)C[C@@H]2OC,134 mg/kg
3,Clc1cnn(CCCCN2CCN(c3ncccn3)CC2)c1,374 mg/kg
4,Cc1ncc(CS)c(CS)c1O,549 mg/kg
5,ClCCCCCCCl,2680 mg/kg
6,Clc1c(Cl)c(Cl)c2c(c1Cl)Oc1ccccc1O2,0.8 mg/kg
7,O=NN1CCN(N=O)CC1,160 mg/kg
8,Clc1c(Cl)c(Cl)c2c(c1Cl)Oc1c(Cl)c(Cl)c(Cl)c(Cl)c1O2,1 mg/kg
9,c1ccc(N(c2ccccc2)c2ccccc2)cc1,3200 mg/kg
10,CCOP(=O)(O)C(N)=O,10100 mg/kg
11,CCN(CC)C(=O)c1ccccc1O,580 mg/kg
12,CCOP(=O)(OCC)SC(C)C,179 mg/kg
13,CN(C)C(=S)SSC(=S)NCCNC(=S)SSC(=S)N(C)C,3000 mg/kg
14,O=P(O)(O)Oc1ccccc1,2290 mg/kg
15,CC(C)N(Cc1ccccc1)C(=O)C(C)(C)C,6000 mg/kg
16,COCCOC,5370 mg/kg
17,Fc1ccc(-c2cccs2)cc1,500 mg/kg
18,CC12CCC(=O)CC1CCC1C2CCC2(C)C(C(=O)COC(=O)CCC(=O)O)CCC12 (stereo not drawn),700 mg/kg
19,CCOC(C1=NCC(C)(CC)CN1)c1ccc(Cl)cc1 (stereo not drawn),110 mg/kg
20,CC(=O)OC1CC(C)CCC1C(C)C (stereo not drawn),7620 mg/kg
21,CCC(C)(O)C#CC(C)(O)CC (stereo not drawn),1400 mg/kg
